Laboratory results published in US20250353891A1 (MEDIMMUNE LIMITED, priority 2022, published 2025).
Starred links: 1 amine or outer side, 2 acyl side, 3 side chain; linkers in the order of their positions; H or OH if unused. Non-standard residues stand in square brackets, D forms with d. Residues, ends and D or L forms follow the SMILES beside them. Groups on a side chain read outwards from the residue. *: point of attachment. C18 diacid = O=C(O)CCCCCCCCCCCCCCCCC(=O)*; γGlu = O=C(O)[C@H](CCC(=O)[*:2])N[*:1]; αMeF = C[C@](N)(Cc1ccccc1)C(=O)O; AEEA = NCCOCCOCC(=O)O; Aib = CC(C)(N)C(=O)O

Key:
[1] = target: human GLP-1 receptor (hGLP-1R) (Homo sapiens, UniProt P43220); test: cAMP production (HTRF) in CHO cells expressing hGLP-1R; format: cell-based; design: expressed in transfected cells; conditions: for EC50: Table 7, peptides modified at position 20, cAMP in CHO hGLP-1R cells, geometric mean, read-out: hGLP-1R EC50; for % Relative Potency Ratio: Table 7, % GLP-1R activity relative to GLP-1 / % GlucR activity relative to glucagon
How it was run: (§1)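 Cells were resuspended in assay buffer at batch-optimized density, typically 1×10^5 cells/mL for hGLP-1R and 2×10^5 cells/mL for hGCGR. After 30 min incubation at room temperature with compound, cAMP was measured by two-step HTRF. EC50 values came from 4-parameter logistic fits of % Delta F.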

[2] = target: human glucagon receptor (hGCGR) (Homo sapiens, UniProt P47871); test: cAMP production (HTRF) in CHO cells expressing hGCGR; format: cell-based; design: expressed in transfected cells; conditions: Table 7, peptides modified at position 20; cAMP in CHO hGCGR cells; geometric mean; read-out: hGluc-R EC50
How it was run: as §1

Chain of human GLP-1 receptor (hGLP-1R) (P43220 24-463): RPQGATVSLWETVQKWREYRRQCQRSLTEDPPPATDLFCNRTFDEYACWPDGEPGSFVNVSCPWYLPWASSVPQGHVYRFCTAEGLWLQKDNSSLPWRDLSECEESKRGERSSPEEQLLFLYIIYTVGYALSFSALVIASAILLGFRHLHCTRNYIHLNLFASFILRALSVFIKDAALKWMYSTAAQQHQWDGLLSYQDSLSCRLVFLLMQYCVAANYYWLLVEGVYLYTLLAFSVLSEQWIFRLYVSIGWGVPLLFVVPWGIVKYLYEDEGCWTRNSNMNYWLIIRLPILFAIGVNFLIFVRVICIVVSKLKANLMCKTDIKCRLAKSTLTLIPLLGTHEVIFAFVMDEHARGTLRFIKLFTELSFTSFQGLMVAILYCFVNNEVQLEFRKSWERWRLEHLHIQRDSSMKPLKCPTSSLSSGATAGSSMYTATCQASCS
Chain of human glucagon receptor (hGCGR) (P47871 26-477): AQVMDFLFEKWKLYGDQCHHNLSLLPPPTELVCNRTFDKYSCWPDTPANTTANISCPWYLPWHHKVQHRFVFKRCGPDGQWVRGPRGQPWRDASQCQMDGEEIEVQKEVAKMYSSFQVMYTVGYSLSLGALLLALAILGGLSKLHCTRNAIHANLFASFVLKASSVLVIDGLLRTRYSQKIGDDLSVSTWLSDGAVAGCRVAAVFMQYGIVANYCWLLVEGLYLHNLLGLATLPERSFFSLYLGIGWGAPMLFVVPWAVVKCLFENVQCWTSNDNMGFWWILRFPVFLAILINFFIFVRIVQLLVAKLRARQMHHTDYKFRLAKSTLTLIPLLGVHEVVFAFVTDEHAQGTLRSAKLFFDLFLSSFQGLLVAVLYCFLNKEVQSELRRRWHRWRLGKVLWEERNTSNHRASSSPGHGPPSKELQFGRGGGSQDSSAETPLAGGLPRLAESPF

Structure (SMILES)	EC50 [1]	% Relative Potency Ratio [1]	EC50 [2]
CC[C@H](C)[C@H](NC(=O)C(C)(C)NC(=O)[C@H](CCC(N)=O)NC(=O)[C@@H](NC(=O)[C@](C)(Cc1ccccc1)NC(=O)[C@H](CC(=O)O)NC(=O)[C@H](CCCCNC(=O)COCCOCCNC(=O)COCCOCCNC(=O)CC[C@H](NC(=O)CCCCCCCCCCCCCCCCC(=O)O)C(=O)O)NC(=O)[C@H](C)NC(=O)[C@H](C)NC(=O)[C@H](CCCNC(=N)N)NC(=O)[C@H](CO)NC(=O)[C@H](CC(=O)O)NC(=O)[C@H](CC(C)C)NC(=O)[C@](C)(Cc1ccccc1)NC(=O)[C@H](CCCCN)NC(=O)[C@H](CO)NC(=O)[C@@H](NC(=O)[C@H](CC(=O)O)NC(=O)[C@H](CO)NC(=O)[C@@H](NC(=O)[C@](C)(Cc1ccccc1)NC(=O)[C@H](CO)NC(=O)CNC(=O)[C@H](Cc1c[nH]cn1)NC(=O)C(C)(C)NC(=O)[C@@H](N)Cc1c[nH]cn1)[C@@H](C)O)C(C)C)C(C)C)C(=O)N[C@@H](C)C(=O)N[C@@H](CC(N)=O)C(=O)N[C@H](C(=O)NCC(=O)NCC(N)=O)[C@@H](C)O [Peptide 225] (H-H[Aib]HGS[αMeF]TSDVSK[αMeF]LDSRAAK([AEEA-AEEA-γGlu-C18 diacid])D[αMeF]VQ[Aib]IANTGG-NH2)	34.9 pM	8.2	145 pM
CC[C@H](C)[C@H](NC(=O)C(C)(C)NC(=O)[C@H](CCC(=O)O)NC(=O)[C@@H](NC(=O)[C@](C)(Cc1ccccc1)NC(=O)[C@H](CC(=O)O)NC(=O)[C@H](CCCCNC(=O)COCCOCCNC(=O)COCCOCCNC(=O)CC[C@H](NC(=O)CCCCCCCCCCCCCCCCC(=O)O)C(=O)O)NC(=O)[C@H](C)NC(=O)[C@H](C)NC(=O)[C@H](CCCNC(=N)N)NC(=O)[C@H](CO)NC(=O)[C@H](CC(=O)O)NC(=O)[C@H](CC(C)C)NC(=O)[C@](C)(Cc1ccccc1)NC(=O)[C@H](CCCCN)NC(=O)[C@H](CO)NC(=O)[C@@H](NC(=O)[C@H](CC(=O)O)NC(=O)[C@H](CO)NC(=O)[C@@H](NC(=O)[C@](C)(Cc1ccccc1)NC(=O)[C@H](CO)NC(=O)CNC(=O)[C@H](Cc1c[nH]cn1)NC(=O)C(C)(C)NC(=O)[C@@H](N)Cc1c[nH]cn1)[C@@H](C)O)C(C)C)C(C)C)C(=O)N[C@@H](C)C(=O)N[C@@H](CC(N)=O)C(=O)N[C@H](C(N)=O)[C@@H](C)O [Peptide 226] (H-H[Aib]HGS[αMeF]TSDVSK[αMeF]LDSRAAK([AEEA-AEEA-γGlu-C18 diacid])D[αMeF]VE[Aib]IANT-NH2)	82.7 pM	0.7	27.4 pM
CC[C@H](C)[C@H](NC(=O)C(C)(C)NC(=O)[C@H](C)NC(=O)[C@@H](NC(=O)[C@](C)(Cc1ccccc1)NC(=O)[C@H](CC(=O)O)NC(=O)[C@H](CCCCNC(=O)COCCOCCNC(=O)COCCOCCNC(=O)CC[C@H](NC(=O)CCCCCCCCCCCCCCCCC(=O)O)C(=O)O)NC(=O)[C@H](C)NC(=O)[C@H](C)NC(=O)[C@H](CCCNC(=N)N)NC(=O)[C@H](CO)NC(=O)[C@H](CC(=O)O)NC(=O)[C@H](CC(C)C)NC(=O)[C@](C)(Cc1ccccc1)NC(=O)[C@H](CCCCN)NC(=O)[C@H](CO)NC(=O)[C@@H](NC(=O)[C@H](CC(=O)O)NC(=O)[C@H](CO)NC(=O)[C@@H](NC(=O)[C@](C)(Cc1ccccc1)NC(=O)[C@H](CO)NC(=O)CNC(=O)[C@H](Cc1c[nH]cn1)NC(=O)C(C)(C)NC(=O)[C@@H](N)Cc1c[nH]cn1)[C@@H](C)O)C(C)C)[C@@H](C)CC)C(=O)N[C@@H](C)C(=O)N[C@@H](CC(N)=O)C(=O)N[C@H](C(N)=O)[C@@H](C)O [Peptide 227] (H-H[Aib]HGS[αMeF]TSDVSK[αMeF]LDSRAAK([AEEA-AEEA-γGlu-C18 diacid])D[αMeF]IA[Aib]IANT-NH2)	70.5 pM	0.8	27.2 pM
